Read-outs that look alike come from different tables or passages of the source.
Tests used:
[1] = Metabolite profiling of plasma (GC-MS and LC-MS/MS) of rats treated with APAP vs. vehicle; conditions: for plasma metabolite in treated (1250 mg/kg) vs. untreated animals: FIG. 1, rats, 1250 mg/kg APAP vs. vehicle, most obvious at 6 and 24 hours; for 1250 mg vs. 0 mg (6 h) Ratio / 1250 mg vs. 0 mg (3 d) Ratio / 1250 mg vs. 0 mg (7 d) Ratio: rat plasma metabolite level, treated with 1250 mg/kg APAP vs. untreated, ANOVA; for 1250 mg vs. 0 mg (3 d) Ratio: 3 days; for 1250 mg vs. 0 mg (7 d) Ratio: 7 days
Description: (§1) Animals accessed feed and water ad libitum.
(§2) For mass spectrometry-based MxP™ Broad Profiling analyses samples were extracted by a proprietary method yielding a lipid and polar fraction which were used for GC-MS (gas chromatography-mass spectrometry) and LC-MS/MS (liquid chromatography-MS/MS) analyses, respectively. For GC-MS analytics the samples were sequentially derivatized before measurement and the non-polar fraction was treated with methanol under acidic conditions to yield the fatty acid methyl esters derived from both free fatty acids and hydrolyzed complex lipids. The non-polar and polar fractions were further derivatized before GC-MS analysis (Roessner et al., Technical advance: simultaneous analysis of metabolites in potato tuber by gas chromatography-mass spectrometry. Plant J. 2000; 23:131-42). In LC-MS/MS analysis a metanomics proprietary technology was applied which allows target and high sensitivity MRM (Multiple Reaction Monitoring) profiling in parallel to full scan analyses (patent WO2003073464). For LC-MS analysis, both fractions were reconstituted in appropriate solvent mixtures. HPLC (high-performance liquid chromatography) was performed on reversed phase separation columns. Data were normalized by the corresponding median of reference samples which derived from a pool formed from aliquots of all samples to account for inter- and intra-instrumental variation. Therefore, pool-normalized semi-quantitative metabolite data were obtained.

[2] = rat, in vivo
Description: as §1, §2

[3] = system: mouse/rat liver tissue; conditions: after administration of hepatotoxic doses of carbon tetrachloride; cited from earlier work
[4] = system: mouse liver tissue; conditions: cited from earlier work

Row | Molecule | plasma metabolite in treated (1250 mg/kg) vs. untreated animals [1] | 1250 mg vs. 0 mg (6 h) Ratio [1] | 1250 mg vs. 0 mg (3 d) Ratio [1] | 1250 mg vs. 0 mg (7 d) Ratio [1] | differences between the test and the control samples [2] | plasma metabolite in treated (1250 mg/kg) vs. untreated animals [2] | putrescine in mouse/rat liver tissue [3] | tissue levels of putrescine ([4]; 18 hours after administration of acetaminophen) | putrescine in mouse liver tissue after treatment with acetaminophen ([4]; mouse liver tissue) | tissue levels of putrescine ([4]; tissue samples obtained after 6 and 12 hours)
1 | Lysophosphatidylcholine (C18:1) | decreased | 0.95 | 1.10 | 1.02 | – | – | – | – | – | –
2 | CC(=O)Nc1ccc(O)cc1 [APAP, N-(4-hydroxyphenyl)acetamide, reference compound] | – | – | – | – | no statistically significant differences | – | – | – | – | –
3 | NCCCCN [Putrescine, Butane-1,4-diamine] | – | – | – | – | – | increased | increased | Elevated | increased | no elevated putrescine levels
4 | NCCOP(=O)(O)O [O-Phosphoethanolamine, o-phosphoethanolamine] | increased | 1.52 | 1.06 | 1.07 | – | – | – | – | – | –
5 | O[C@H]1[C@H](O)[C@@H](O)[C@H](O)[C@@H](O)[C@H]1O [myo-Inositol, lipid fraction, myo-inositol] | increased | 1.28 | 1.04 | 1.02 | – | – | – | – | – | –

Source: patent US20170176477A1 (Metanomics Health GmbH, priority 2012, published 2017)
